Assay results: the supplement of paper PMC10307832

Experiments:
Etoposide + Foretinib = compound: COc1cc([C@@H]2c3cc4c(cc3[C@@H](O[C@@H]3O[C@@H]5CO[C@@H](C)O[C@H]5[C@H](O)[C@H]3O)[C@H]3COC(=O)[C@H]23)OCO4)cc(OC)c1O [Etoposide] + COc1cc2c(Oc3ccc(NC(=O)C4(C(=O)Nc5ccc(F)cc5)CC4)cc3F)ccnc2cc1OCCCN1CCOCC1 [Foretinib] (partner 0.25 µM); assay: relative viability (nuclei count vs DMSO), 5 days (fraction); higher = more cells survive
How it was run: (§1)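 Each reported value is a median over duplicate plates. It expresses relative viability: treated-well nuclei count divided by vehicle-well nuclei count. Lung cancer cell lines in 1536-well plates were dosed by pin tool a day after seeding, alone with one drug or with a fixed anchor-drug dose plus five library-drug doses (not always all listed) in √10 steps, and nuclei were counted after 5 days.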

Bleomycin + Navitoclax = compound: CC1=C(N=C(N=C1N)[C@H](CC(=O)N)NC[C@@H](C(=O)N)N)C(=O)N[C@@H]([C@H](C2=CN=CN2)OC3C(C(C(C(O3)CO)O)O)OC4C(C(C(C(O4)CO)O)OC(=O)N)O)C(=O)N[C@H](C)[C@H]([C@H](C)C(=O)N[C@@H]([C@@H](C)O)C(=O)NCCC5=NC(=CS5)C6=NC(=CS6)C(=O)NCCC[S+](C)C)O [Bleomycin] + CC1(C)CCC(c2ccc(Cl)cc2)=C(CN2CCN(c3ccc(C(=O)NS(=O)(=O)c4ccc(N[C@H](CCN5CCOCC5)CSc5ccccc5)c(S(=O)(=O)C(F)(F)F)c4)cc3)CC2)C1 [Navitoclax] (partner 0.5 µM); assay: as above; conditions: main component drawn
How it was run: as §1

Cell Line	relative viability (Etoposide + Foretinib; first compound 0.01 µM)	relative viability (Etoposide + Foretinib; first compound 0.03162 µM)	relative viability (Etoposide + Foretinib; first compound 0.1 µM)	relative viability (Etoposide + Foretinib; first compound 0.3162 µM)	relative viability (Etoposide + Foretinib; first compound 1 µM)	relative viability (Bleomycin + Navitoclax; first compound 0.01 µM)	relative viability (Bleomycin + Navitoclax; first compound 0.03162 µM)	relative viability (Bleomycin + Navitoclax; first compound 0.1 µM)	relative viability (Bleomycin + Navitoclax; first compound 0.3162 µM)	relative viability (Bleomycin + Navitoclax; first compound 1 µM)
NCI-H2342	0.878	1.02	0.493	0.359	0.298					
SK-MES-1	0.856	1.13	0.719	0.704	0.433	1.12	0.97	0.736	0.278	0.18
NCI-H2087	1.04	1.11	0.859	0.46	0.221	0.69	1.04	0.841	0.371	0.158
HCC-366	0.961	0.848	0.442	0.12	0.0524	0.74	0.489	0.268	0.0573	0.0178
201T	0.981	0.931	1.1	0.778	0.425	1.17	1.13	1.18	1.16	1.04
HCC-827	0.996	1.01	0.915	0.284	0.177	0.986	1.06	0.991	0.723	0.362
NCI-H650	0.961	0.913	0.682	0.606	0.288					
NCI-H2023	0.987	0.886	0.814	0.352	0.218	0.723	0.72	0.519	0.244	0.148
NCI-H596	0.748	0.833	1.04	0.799	0.596	0.648	0.534	0.312	0.276	0.305
SK-LU-1	0.765	0.701	0.484	0.329	0.18	0.807	1.06	0.662	0.205	0.264
A-427	0.947	1.08	0.853	0.424	0.284	0.844	0.888	0.991	0.787	0.27
NCI-H460	0.871	0.907	0.809	0.142	0.0668	0.343	0.465	0.0823	0.0158	0.0206
NCI-H1703	0.39	0.34	0.349	0.268	0.343	1.05	1.11	0.531	0.278	0.203
NCI-H1792						0.541	0.665	0.492	0.302	0.109
Calu-6	0.825	0.922	0.921	0.41	0.234	0.459	0.336	0.207	0.114	0.0817
SW 1573	0.873	0.931	0.475	0.537	0.278	0.652	0.571	0.515	0.201	0.104
RERF-LC-KJ	0.788	0.866	0.639	0.83	0.767	0.54	0.5	0.439	0.227	0.192
EMC-BAC-2	0.918	1.05	0.612	0.302	0.238	1.04	1.18	0.979	0.661	0.399
LK-2	0.879	1.17	0.933	0.912	0.401	0.478	0.537	0.415	0.214	0.239

Cell Line	relative viability (Etoposide + Foretinib; first compound 0.01 µM)	relative viability (Etoposide + Foretinib; first compound 0.03162 µM)	relative viability (Etoposide + Foretinib; first compound 0.1 µM)	relative viability (Etoposide + Foretinib; first compound 0.3162 µM)	relative viability (Etoposide + Foretinib; first compound 1 µM)	relative viability (Bleomycin + Navitoclax; first compound 0.01 µM)	relative viability (Bleomycin + Navitoclax; first compound 0.03162 µM)	relative viability (Bleomycin + Navitoclax; first compound 0.1 µM)	relative viability (Bleomycin + Navitoclax; first compound 0.3162 µM)	relative viability (Bleomycin + Navitoclax; first compound 1 µM)
NCI-H2228	0.803	1.04	0.812	0.519	0.204	1.02	0.625	0.664	0.437	0.363
NCI-H322M	0.813	1	0.831	0.864	0.483	1.13	1.36	1.36	1.28	0.597
NCI-H1975	0.914	0.938	0.895	0.91	0.286	0.872	0.878	0.584	0.28	0.222
NCI-H1944	0.697	0.95	0.578	0.471	0.347	0.762	0.77	0.594	0.423	0.233
LU99A	0.911	0.966	0.43	0.466	0.287	0.622	0.491	0.335	0.166	0.147
NCI-H2405	1.01	1.08	1.05	0.899	0.43	0.559	0.714	0.499	0.196	0.199
NCI-H2009	1.17	1.24	1.17	0.835	0.694	1.16	1.18	1.09	0.858	0.532
HCC-15	1.07	1.02	1.02	0.314	0.157	0.656	0.68	0.713	0.378	0.324
HCC-44						0.674	0.323	0.278	0.161	0.191
COR-L23	0.954	1.14	1	0.744	0.33	0.811	0.723	0.332	0.0914	0.104
HCC-78	0.476	0.532	0.438	0.404	0.252	0.463	0.439	0.387	0.326	0.278
NCI-H1299	1.07	1.11	1.11	0.997	0.811	0.977	1.01	0.922	0.396	0.376
NCI-H838	0.981	1.03	1.01	0.841	0.35	0.768	0.403	0.274	0.19	0.172
NCI-H2126	1.05	1.08		0.712	0.394	0.787	0.82	0.839	0.8	0.643
BEN	0.564	0.884		0.657	0.725	0.0606	0.0742	0.0676	0.0599	0.0555
LCLC-103H	0.592	0.597	0.77	0.636	0.502					
EKVX	1.09	0.711	0.448	0.237	0.303	0.75	0.925	0.842	0.424	0.285
LXF-289	0.973	0.971	1.02	0.611	0.327	0.877	0.879	0.799	0.35	0.179
ABC-1	1.06	0.951	0.65	0.5	0.271					

Cell Line	relative viability (Etoposide + Foretinib; first compound 0.01 µM)	relative viability (Etoposide + Foretinib; first compound 0.03162 µM)	relative viability (Etoposide + Foretinib; first compound 0.1 µM)	relative viability (Etoposide + Foretinib; first compound 0.3162 µM)	relative viability (Etoposide + Foretinib; first compound 1 µM)	relative viability (Bleomycin + Navitoclax; first compound 0.01 µM)	relative viability (Bleomycin + Navitoclax; first compound 0.03162 µM)	relative viability (Bleomycin + Navitoclax; first compound 0.1 µM)	relative viability (Bleomycin + Navitoclax; first compound 0.3162 µM)	relative viability (Bleomycin + Navitoclax; first compound 1 µM)
NCI-H661	0.982	1.06	0.889	0.845	0.53					
NCI-H1650	0.981	1.09	0.9	0.431	0.281	0.394	0.429	0.212	0.148	0.211
NCI-H2085	0.781	0.897	0.88	0.667	0.33	0.994	1.02	0.849	0.508	0.465
NCI-H1793	0.491	0.644		0.503	0.248	0.355	0.404	0.298	0.177	0.163
LC-2-ad	0.898	0.896	0.696	0.424	0.308	0.333	0.364	0.24	0.123	0.13
COR-L 105	0.926	1.3	1.02	1.02	0.645	0.59	0.884	0.716	0.483	0.28
NCI-H1355	0.812	0.998	0.828	0.507	0.285	1.01	0.947	0.913	0.565	0.328
H3255	0.974	0.897	0.603	0.674	0.457	0.395	0.596	0.495	0.229	0.179
NCI-H1993	0.788	0.906	0.557	0.733	0.51	0.887	0.765	0.863	0.663	0.584
NCI-H1734	0.776	0.923	0.701	0.602	0.369	0.719	0.571	0.518	0.24	0.139
HOP-62	1.06	1.05	0.967	0.628	0.418	0.367	0.405	0.118	0.0652	0.0435
LOU-NH91	0.919	0.949	0.745	0.795	0.406	0.553	0.437	0.362	0.266	0.199
ChaGo-K-1	0.781	0.978	0.8	0.281	0.21		0.914	0.724	0.386	0.307
NCI-H23	0.924	0.941	0.678	0.4	0.242	0.47	0.284	0.276	0.155	0.181
PC-3 [JPC-3]	0.947	1.06	1.06	0.906	0.897	0.784	0.957	0.758	0.63	0.511
NCI-H1563	0.758	0.93	0.785	0.609	0.604					
NCI-H1623	0.984	0.937	0.628	0.658	0.298					
SW 900	0.806	0.87	0.725	0.596	0.278					
NCI-H358	0.705	0.756	0.447	0.184	0.134					
